# Results: patent US20230382915A1, “GCN2 AND PERK KINASE INHIBITORS AND METHODS OF USE THEREOF” (Deciphera Pharmaceuticals, LLC, priority 2021, published 2023)
# pIC50: −log10 of the molar value.
# How the values were obtained:
# [1] = system: ATF4 in H929 multiple myeloma cells; assay: H929 ATF4 ELISA assay; type: cell-based
# Procedure: H929 multiple myeloma cells (catalog #CRL-9068) were obtained from the American Type Culture Collection (ATTC, Manassas, VA). Briefly, cells were grown in RPMI-1640 medium supplemented with 20% heat-inactivated fetal bovine serum (catalog #A3840002, ThermoFisher Scientific, Waltham, MA), 1% Penicillin/Streptomycin/L-Glutamine (catalog #10378016, ThermoFisher Scientific, Waltham, MA), and 0.05 mM 2-mercaptoethanol (catalog #21985-023, ThermoFisher Scientific, Waltham, MA) at 37° C., 5% CO2, and 95% humidity. Cells were expanded until reaching one million five hundred thousand cells per mL at which time they were sub-cultured or harvested for assay use. One million five hundred thousand cells per well in 1 mL complete growth medium were dispensed into 12-well plates and incubated overnight. A serial dilution of test compound was added, and cells were incubated at 37° C., 5% CO2, and 95% for four hours. Cells were lysed then ATF4 levels were measured using an ELISA assay (Proteintech, Rosemont, IL). Absorbance is measured at 450 nm and 544 nM using a Synergy2 or equivalent reader (Biotek, Winooski VT). Data were analyzed using PRISM software (Graphpad, San Diego, CA) to calculate fold stimulation of cellular ATF4 relative to vehicle treated control.
# [2] = system: H358 solid tumor spheroids; assay: Spheroid proliferation assay, H358; type: cell-based
# Procedure: Non Small Cell Lung Cancer (NSCLC) cell lines H358 (catalog #CRL-5807) and H2030 (catalog #CRL-5914), and fibrosarcoma line HT-1080 (catalog […]) were obtained from the American Type Culture Collect (ATTC, Manassas, VA). Cells were grown in RPMI-1640 medium supplemented with 10% heat-inactivated fetal bovine serum and 1% Penicillin/Streptomycin/L-Glutamine (Invitrogen, Carlsbad, CA) at 37° C., 5% CO2, and 95% humidity and maintained at 50-80% confluency until use. 500-1000 cells were plated in 96-well ultra-low attachment plates (Corning, Glendale, AZ) with complete growth media at 80 μL/well and incubated overnight at 37° C., 5% CO2, and 95% humidity to form spheroids. The next day, serial dilutions of test compounds were prepared in complete growth media and 20 μL/well media containing compound titers was added to spheroids in triplicate. Spheroids were then incubated with test compounds for 5 days under the same conditions. At the end of the incubation, spheroids were lysed with 100 μL/well CellTiter-Glo 3D Viability Assay (Promega, Madison, WI) and luminescence was detected using Synergy2 or equivalent reader (Biotek, Winooski, VT). Data was analyzed using GraphPad Prism software (GraphPad, San Diego, CA) to calculate IC50 values.
# [3] = system: ATF4 levels in CCRF-CEM leukemia xenograft; assay: CCRF-CEM xenograft PK/PD model; type: in vivo, mice; settings: Mus musculus, po, in combination with ASNase, 2, 6, 10 h post dose, read-out: inhibition of ATF4 levels compared to vehicle control
# Procedure: The CCRF-CEM xenograft model was performed in compliance with all the laws, regulations and guidelines of the National Institutes of Health (NIH) and with the approval of the Animal Care and Use Committee of Labcorp (Ann Arbor, MI), an AAALAC accredited facility. Food and water was provided ad libitum. […] Female Envigo C.B-17 SCID (6-7 weeks old) were inoculated subcutaneously just below the right high axilla with ten million cells in Dulbecco's Phosphate Buffered Saline, using a 27-gauge needle and syringe. When tumor burdens reached 200 mm 3 on average on day 22, mice were randomly assigned into groups such that the mean tumor burden for all groups was within 10% of the overall mean tumor burden for the study population. Groups were treated on days 23-24 as follows: on day 23 vehicle control (dosed orally and IP to mimic combination groups) (n=9); ASNase (Abcam, Cambridge, UK) dosed IP at 1000 U/kg/day (n=9). […] Protein concentrations were determined using BCA protein assay kit (Thermo Fisher Scientific, Waltham, MA). […] Samples were resolved using SDS-PAGE then analyzed using Western blot to quantify phospho-GCN2 (Thr899) (Abcam, Cambridge, UK), total GCN2, ATF4 and beta-Actin (Cell Signaling Technology, Danvers, MA). […] Data is analyzed using GraphPad Prism software (GraphPad, San Diego, CA) to calculate % inhibition.
structure (smiles),measurement,setting,value
"Cn1cc(-c2cccc(NS(=O)(=O)c3cc(Cl)cc(CO)c3Cl)c2F)c2c(N)ncnc21 [Example 2, N-(3-(4-amino-7-methyl-7H-pyrrolo[2,3-d]pyrimidin-5-yl)-2-fluorophenyl)-2,5-dichloro-3-(hydroxymethyl)benzenesulfonamide]",concentration at which maximum ATF4 stimulation occurred,[1]; FIG. 1,around 41 nM
same,maximum stimulation in ATF4 signal,[1]; FIG. 1,13 fold
same,concentrations at which ATF4 expression reverted to basal levels,"[1]; FIG. 1, inhibitory phase",≥ 370 nM
same,H929 NS ATF4 ELISA (ATF4 stim),"[1]; four hours, relative to vehicle treated control",+++ (an ATF4 stim greater than 10 fold and less than or equal to 20 fold)
same,pIC50,"[2]; Homo sapiens, NCI-H358, 120 h, 5 days, FIG. 11B, read-out: inhibition of cell proliferation IC50, single agent",8.00
same,"spheroid growth, combination treatment","[2]; with 3.3 nM sotorasib, 96 h, FIG. 12B",greater spheroid regression compared to either single agent
same,inhibition at 25 mg/kg,[3]; 25 mg/kg orally,57 to 93%
same,inhibition at 50 mg/kg,[3]; 50 mg/kg orally,87 to 91%
